Laboratory results reported in patent US20070167474A1, “Use of opioid receptor antagonist compounds for the prevention and/or treatment of diseases associated with the target calcineurin” (priority 2004, published 2007).
Counter-ions that a name gives are not always drawn.

Tests used:
[1] = tested on: Interleukin-2 (IL-2) production on spleen cells in the MLR; assay: Measurement of interleukin-2 production in MLR (mixed lymphocyte reaction); type: cell-based, mice; conditions: 48 h culture, ELISA
Procedure: Measurement of Interleukin-2 Production in MLR (Mixed Lymphocyte Reaction)
Measurement of interleukin-2 production in MLR was performed according to the described procedure (Gaveriaux-Ruff et al., J. Pharmacol. Exper. Ther. 298, 1193, 2001).
Splenocytes from mice were cultured with allogeneic stimulators (mitomycin treated BALB/c spleen cells).

calcineurin = calcineurin (Homo sapiens, UniProt Q08209); assay: Calcineurin inhibition assay; type: biochemical; conditions: compound at a concentration of 20 μM
Procedure: Calcineurin Inhibition Assays
Calcineurin inhibition assay was performed according to a described procedure (R. Baumgrass et al., J. Biol. Chem. 276, 47914, 2001).
Calcineurin inhibition was measured in a concentration range of 1-50 μM of the test compound at optimal Ca^2+ and calmoduline concentrations. The calcineurin/compound mixtures were equilibrated in the assay buffer (40 mM Tris-HCl, pH 7.5, 100 mM NaCl, 6 mM MgCl2, 0.5 mM ditiothreitol, 1 mM CaCl2, 0.1 mg/ml bovine serum albumin) at 22° C. for 30 min. Calcineurin activity was referenced to the assay lacking the test compounds. The data were computed with the SigmaPlot program.

Sequence of calcineurin (P63098 2-170, other chains not shown): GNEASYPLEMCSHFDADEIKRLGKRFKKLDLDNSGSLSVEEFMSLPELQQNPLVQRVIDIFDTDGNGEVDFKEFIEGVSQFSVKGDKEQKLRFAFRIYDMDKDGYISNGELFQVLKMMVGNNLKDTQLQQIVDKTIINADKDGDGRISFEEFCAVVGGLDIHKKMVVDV

Structure (SMILES)	IL-2 ([1]; 10 μM compound) [pg/mL]	Calcineurin activity (% of control) (calcineurin)	other results
CCOC12Cc3c([nH]c4ccccc34)C3(C)Oc4c(O)ccc5c4C31CCN(CC1CC1)C2C5 (stereo not drawn) [HS 378, 17-(Cyclopropylmethyl)-6,7-dehydro-4,5α-epoxy-14ethoxy-3-hydroxy-5-methyl-6,7-2′,3′-indolomorphinan Hydrochloride]	31 ± 3		IL-2 ([1]; 2 μM compound): 49 ± 7 pg/mL; IL-2 ([1]; 20 μM compound): 22 ± 2 pg/mL
Cl.Oc1ccc2c3c1OC1c4[nH]c5ccccc5c4CC4(OCc5ccccc5-c5ccccc5)C(C2)N(CC2CC2)CCC314 (stereo not drawn) [HS 882, 17-(Cyclopropylmethyl)-6,7-didehydro-4,5α-epoxy-14β-[(2-phenylbenzyl)oxy]indolo[2′,3′:6,7]morphinan-3-ol Hydrochloride]		49 % of control	
CC(C)(C)c1ccc(COC23Cc4c([nH]c5ccccc45)C4Oc5c(O)ccc6c5C42CCN(CC2CC2)C3C6)cc1.Cl (stereo not drawn) [HS 884, 14β-[(4-tert.-Butylbenzyl)oxy]-17-(cyclopropylmethyl)-6,7-didehydro-4,5α-epoxyindolo[2′,3′:6,7]morphinan-3-ol Hydrochloride]		65 % of control	
Oc1ccc2c3c1OC1c4[nH]c5ccccc5c4CC4(OCCCc5ccccc5)C(C2)N(CC2CC2)CCC314 (stereo not drawn) [HS 894, 17-(Cyclopropylmethyl)-6,7-didehydro-4,5α-epoxy-14β-[(3-phenylpropyl)oxy]indolo[2′,3′:6,7]morphinan-3-ol]		30 % of control	
Oc1ccc2c3c1O[C@H]1c4[nH]c5ccccc5c4C[C@@]4(O)[C@@H](C2)N(CC2CC2)CC[C@]314 [Naltrindole, reference compound]	29 ± 6		IL-2 ([1]; 3 μM compound): 66 ± 18 pg/mL; IL-2 ([1]; 30 μM compound): 19 ± 5 pg/mL
